This is an account of results in patent US20170334899A1, “AMINO-SUBSTITUTED ISOTHIAZOLES” (Bayer Pharma Aktiengesellschaft, priority 2014, published 2017).

Experiment [1] deals with human cervical tumor cell line HeLa (ATCC CCL-2). As to the kind of experiment: SAC-Formation - Paclitaxel-Induced Assay. In kind it is cell-based. The note with it: Homo sapiens, HeLa, 24 h, HeLa cells, paclitaxel 0.05 μM, test range 0.005 μM-20 μM, read-out: IC50 [mol/l] SAC-Formation - Paclitaxel-Induced Assay. The method in brief:
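Read-out is high-content imaging of anti-phospho-H3 Ser10 (mitosis) and Hoechst 33342 (DNA, cell number), with decreased mitotic fraction marking checkpoint breakthrough. Compounds (0.005–20 μM) and 0.05 μM paclitaxel co-added to overnight-plated HeLa for 24 h at 37° C; four-parameter Hill fit.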

For another experiment, the target named is T1, CDK2/CycE (Homo sapiens, UniProt P24941).
T1 construct: GST; purchased ProQinase GmbH (Freiburg, Germany); host or cells: insect cells (Sf9)
Kind of experiment: CDK2/CycE kinase assay (TR-FRET). In kind it is biochemical. The following applies: avg, read-out: CDK2 avg (IC50 [mol/l]). The method in brief: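 Read-out is a TR-FRET 665/620 nm emission ratio from EDTA-stopped reactions detected with anti-pRB(pSer807/pSer811), Eu-labelled anti-mouse IgG and streptavidin-XL665, scaled between no-enzyme and uninhibited wells. Reaction: Sf9-expressed GST-CDK2/GST-CycE, 15 min compound preincubation, 10 μM ATP, 0.75 μM biotin-peptide, 25 min, 22° C., pH 8.0 Tris buffer.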

The structures appear in SMILES notation.

As to `Cc1nsc(Nc2cnc(C(F)(F)F)cn2)c1C(=O)Nc1ccc(OC2CCN(C)CC2)nc1` [Example 220, 3-methyl-N-{6-[(1-methylpiperidin-4-yl)oxy]pyridin-3-yl}-5-{[5-(trifluoromethyl)pyrazin-2-yl]amino}-1,2-thiazole-4-carboxamide], the IC50 in experiment [1] was 0.97 µM; on CDK2/CycE, greater than 20 µM.

As to `Cc1nsc(Nc2cnc3ccccc3n2)c1C(=O)Nc1ccc(NCCC(=O)OC(C)(C)C)nc1` [Example 236, tert-butyl N-[5-({[3-methyl-5-(quinoxalin-2-ylamino)-1,2-thiazol-4-yl]carbonyl}amino)pyridin-2-yl]-beta-alaninate], the IC50 in experiment [1] was 20 µM; on CDK2/CycE it was greater than 20 µM.

Consider `CNS(=O)(=O)c1ccc(NC(=O)c2c(C)nsc2Nc2cnc(C(F)(F)F)cn2)cc1` [Example 212, 3-methyl-N-[4-(methylsulfamoyl)phenyl]-5-{[5-(trifluoromethyl)pyrazin-2-yl]amino}-1,2-thiazole-4-carboxamide], for which the values for the IC50 (in experiment [1]; at CDK2/CycE) were 4.1 µM and greater than 20 µM, respectively.

As for `Cc1nsc(Nc2cnc3ccccc3n2)c1C(=O)Nc1cccc(NC(=O)C(C)(C)C)c1` [Example 186, N-{3-[(2,2-dimethylpropanoyl)amino]phenyl}-3-methyl-5-(quinoxalin-2-ylamino)-1,2-thiazole-4-carboxamide], the IC50 in experiment [1] was 3.8 µM; on CDK2/CycE it was greater than 20 µM.

With `Cc1nsc(Nc2cnc3ccccc3n2)c1C(=O)Nc1ccc(NC2CCCN(C(=O)OC(C)(C)C)C2)nc1` (stereo not drawn) [Example 241, tert-butyl 3-{[5-({[3-methyl-5-(quinoxalin-2-ylamino)-1,2-thiazol-4-yl]carbonyl}amino)pyridin-2-yl]amino}piperidine-1-carboxylate], the IC50 is 2.3 µM in experiment [1] and greater than 20 µM at CDK2/CycE.

With `Cc1nsc(Nc2ccc(C#N)cn2)c1C(=O)Nc1cccc(N)c1` [Example 180, N-(3-aminophenyl)-5-[(5-cyanopyridin-2-yl)amino]-3-methyl-1,2-thiazole-4-carboxamide], the figures for the IC50 (in experiment [1]; at CDK2/CycE) were 4.3 µM and greater than 20 µM, respectively.

For `Cc1nsc(Nc2cncc(C(F)(F)F)n2)c1C(=O)Nc1ccc(OC2CCN(C(C)C)CC2)nc1` [Example 218, N-{6-[(1-isopropylpiperidin-4-yl)oxy]pyridin-3-yl}-3-methyl-5-{[6-(trifluoromethyl)pyrazin-2-yl]amino}-1,2-thiazole-4-carboxamide], the values for the IC50 (in experiment [1]; at CDK2/CycE) were 3.9 µM and greater than 20 µM, respectively.

Take `CNS(=O)(=O)c1ccc(NC(=O)c2c(C)nsc2Nc2cc(C#N)ccn2)cc1` [Example 210, 5-[(4-cyanopyridin-2-yl)amino]-3-methyl-N-[4-(methylsulfamoyl)phenyl]-1,2-thiazole-4-carboxamide]: the IC50 in experiment [1] is 7.7 µM; at CDK2/CycE, greater than 20 µM.

With `COC(=O)CCc1cccc(NC(=O)c2c(C)nsc2Nc2ccc(C#N)cn2)c1` [Example 176, methyl 3-{3-[({5-[(5-cyanopyridin-2-yl)amino]-3-methyl-1,2-thiazol-4-yl}carbonyl)amino]phenyl}propanoate], the IC50 in experiment [1] is 0.24 µM; on CDK2/CycE it was greater than 20 µM.

Consider `CCN(CC)CCNC(=O)c1cccc(NC(=O)c2c(C)nsc2Nc2cc(C#N)ccn2)c1` [Example 174, 5-[(4-cyanopyridin-2-yl)amino]-N-(3-{[2-(diethylamino)ethyl]carbamoyl}phenyl)-3-methyl-1,2-thiazole-4-carboxamide], for which the IC50 in experiment [1] is 0.55 µM; at CDK2/CycE, greater than 20 µM.

Take `Cc1nsc(Nc2cncc(C(F)(F)F)n2)c1C(=O)Nc1ccc(OC2CCN(CC(F)F)CC2)c(F)c1` [Example 224, N-(4-{[1-(2,2-difluoroethyl)piperidin-4-yl]oxy}-3-fluorophenyl)-3-methyl-5-{[6-(trifluoromethyl)pyrazin-2-yl]amino}-1,2-thiazole-4-carboxamide]: the IC50 in experiment [1] was 0.18 µM; on CDK2/CycE, greater than 20 µM.

With `Cc1nsc(Nc2cnc3ccccc3n2)c1C(=O)Nc1ccc(NC(=O)C(C)(C)C)cc1` [Example 185, N-{4-[(2,2-dimethylpropanoyl)amino]phenyl}-3-methyl-5-(quinoxalin-2-ylamino)-1,2-thiazole-4-carboxamide], the IC50 in experiment [1] is 4.7 µM; on CDK2/CycE it was greater than 20 µM.

Consider `Cc1nsc(Nc2cnc(C(F)(F)F)cn2)c1C(=O)Nc1ccc(F)c(OC2CCN(C(=O)OC(C)(C)C)CC2)c1` [Example 229, tert-butyl 4-(2-fluoro-5-{[(3-methyl-5-{[5-(trifluoromethyl)pyrazin-2-yl]amino}-1,2-thiazol-4-yl)carbonyl]amino}phenoxy)piperidine-1-carboxylate], for which the IC50 is 0.36 µM in experiment [1] and greater than 20 µM at CDK2/CycE.

As to `Cc1nsc(Nc2cnc(C(F)(F)F)cn2)c1C(=O)Nc1ccc(OCCN)c(F)c1` [Example 221, 3-N-[4-(2-aminoethoxy)-3-fluorophenyl]-3-methyl-5-{[5-(trifluoromethyl)pyrazin-2-yl]amino}-1,2-thiazole-4-carboxamide], the IC50 is 0.5 µM in experiment [1] and greater than 20 µM at CDK2/CycE.

For the molecule `Cc1nsc(Nc2cc(C#N)ccn2)c1C(=O)Nc1ccc(C(=O)OC(C)(C)C)cc1` [Example 182, tert-butyl 4-[({5-[(4-cyanopyridin-2-yl)amino]-3-methyl-1,2-thiazol-4-yl}carbonyl)amino]benzoate], the IC50 is 0.019 µM in experiment [1] and greater than 20 µM on CDK2/CycE.

For the molecule `Cc1nsc(Nc2cncc(C(F)(F)F)n2)c1C(=O)Nc1ccc(OCCN)nc1` [Example 196, N-[6-(2-aminoethoxy)pyridin-3-yl]-3-methyl-5-{[6-(trifluoromethyl)pyrazin-2-yl]amino}-1,2-thiazole-4-carboxamide], the IC50 in experiment [1] is 1.3 µM; on CDK2/CycE it was greater than 20 µM.

For the molecule `Cc1nsc(Nc2cc(C#N)ccn2)c1C(=O)Nc1ccc(OCCC(=O)OC(C)(C)C)nc1` [Example 200, tert-butyl 3-({5-[({5-[(4-cyanopyridin-2-yl)amino]-3-methyl-1,2-thiazol-4-yl}carbonyl)amino]pyridin-2-yl}oxy)propanoate], the IC50 is 1.2 µM in experiment [1] and greater than 20 µM on CDK2/CycE.

In the case of `Cc1nsc(Nc2cncc(C(F)(F)F)n2)c1C(=O)Nc1ccc(C(=O)OC(C)(C)C)cc1` [Example 193, tert-butyl tert-butyl 4-{[(3-methyl-5-{[6-(trifluoromethyl)pyrazin-2-yl]amino}-1,2-thiazol-4-yl)carbonyl]amino}benzoate], the IC50 was determined as 0.51 µM in experiment [1] and 12 µM on CDK2/CycE.

For the molecule `Cc1nsc(Nc2cc(C#N)ccn2)c1C(=O)Nc1ccc(NC2CCCNC2)nc1` (stereo not drawn) [Example 242, 5-[(4-cyanopyridin-2-yl)amino]-3-methyl-N-[6-(piperidin-3-ylamino)pyridin-3-yl]-1,2-thiazole-4-carboxamide], the IC50 in experiment [1] is 3.3 µM; at CDK2/CycE, greater than 20 µM.

On to `Cc1nsc(Nc2cncc(C(F)(F)F)n2)c1C(=O)Nc1ccc(C(=O)NCCN2CCCC(F)(F)C2)cc1` [Example 214, N-(4-{[2-(3,3-difluoropiperidin-1-yl)ethyl]carbamoyl}phenyl)-3-methyl-5-{[6-(trifluoromethyl)pyrazin-2-yl]amino}-1,2-thiazole-4-carboxamide], for which the IC50 in experiment [1] was determined as 1.6 µM.
